In BindingDB's records for doi:10.1021/acs.jmedchem.5b01031 (Wayne State University, 2015):

Experiments:
D(2) dopamine receptor [1] = target: T1, D(2) dopamine receptor (Homo sapiens, UniProt P14416); experiment: Antagonist activity against human D2 receptor expressed in CHO cells assessed as dopamine EC50 at 1 uM by [35S]GTPgammaS binding assay (Rvb = 225 +/- 45 nM)
D(2) dopamine receptor [2] = target: T1, D(2) dopamine receptor; experiment: Antagonist activity against human D2 receptor expressed in CHO cells assessed as dopamine EC50 at 200 nM by [35S]GTPgammaS binding assay (Rvb = 225 +/- 45 nM)

T1 sequence (P14416 whole entry): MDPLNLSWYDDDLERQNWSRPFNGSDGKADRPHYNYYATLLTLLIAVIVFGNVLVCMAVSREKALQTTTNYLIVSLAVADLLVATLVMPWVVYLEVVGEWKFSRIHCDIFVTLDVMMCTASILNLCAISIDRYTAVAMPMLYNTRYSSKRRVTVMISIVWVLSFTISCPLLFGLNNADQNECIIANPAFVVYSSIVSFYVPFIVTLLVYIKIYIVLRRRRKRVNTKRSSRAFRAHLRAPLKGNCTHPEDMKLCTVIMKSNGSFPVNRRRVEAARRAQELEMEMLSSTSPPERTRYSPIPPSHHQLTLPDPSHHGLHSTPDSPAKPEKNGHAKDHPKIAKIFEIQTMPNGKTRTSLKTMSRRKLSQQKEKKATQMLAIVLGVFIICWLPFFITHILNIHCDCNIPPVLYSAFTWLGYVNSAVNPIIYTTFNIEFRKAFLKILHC

CCCN1CCC[C@@H](c2cccc(O)c2)C1 [Preclamol]
EC50 (D(2) dopamine receptor [1]): 844 nM
EC50 (D(2) dopamine receptor [2]): 376 nM
